Measurements from patent US20250340537A1, “PHARMACEUTICALLY ACTIVE COMPOUNDS, COMPOSITIONS, AND METHODS FOR MODULATING PENDRIN” (ARBORMED Co., Ltd., priority 2022, published 2025).

Key:
[1] = target: T1, H723R-pendrin (Homo sapiens, UniProt O43511, H723R); assay: YFP fluorescence quenching assay (Cl−/I− exchange activity of pendrin); type: cell-based; conditions: PANC-1 cells stably expressing human H723R-pendrin and YFP-F46L/H148Q/I152L; compound incubation 20-24 hours; iodide influx
T1 construct: expressed in transfected cells; host or cells: PANC-1
T1 sequence (O43511 1-780 H723R): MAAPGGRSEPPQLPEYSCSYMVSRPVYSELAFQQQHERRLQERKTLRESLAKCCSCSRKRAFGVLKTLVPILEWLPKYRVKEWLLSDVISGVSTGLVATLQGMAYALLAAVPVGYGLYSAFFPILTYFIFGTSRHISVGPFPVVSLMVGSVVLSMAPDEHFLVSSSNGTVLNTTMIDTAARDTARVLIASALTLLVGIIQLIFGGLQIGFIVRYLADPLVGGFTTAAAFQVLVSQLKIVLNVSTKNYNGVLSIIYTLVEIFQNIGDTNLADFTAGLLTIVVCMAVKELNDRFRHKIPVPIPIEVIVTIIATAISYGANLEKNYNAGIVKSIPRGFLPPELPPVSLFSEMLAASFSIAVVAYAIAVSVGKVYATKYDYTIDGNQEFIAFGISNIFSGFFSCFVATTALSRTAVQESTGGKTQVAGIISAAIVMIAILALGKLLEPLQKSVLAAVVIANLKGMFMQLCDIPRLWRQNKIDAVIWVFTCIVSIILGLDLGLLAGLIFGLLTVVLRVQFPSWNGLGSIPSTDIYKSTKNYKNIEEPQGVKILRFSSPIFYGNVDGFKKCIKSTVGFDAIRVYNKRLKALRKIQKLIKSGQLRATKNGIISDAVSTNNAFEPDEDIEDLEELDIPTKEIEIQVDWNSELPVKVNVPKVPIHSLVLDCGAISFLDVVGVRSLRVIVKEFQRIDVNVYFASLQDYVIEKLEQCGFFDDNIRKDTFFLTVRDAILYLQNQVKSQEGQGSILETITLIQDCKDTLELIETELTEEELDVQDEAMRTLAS
Procedure, shortened: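 PANC-1 cells stably co-expressing human H723R-pendrin and YFP-F46L/H148Q/I152L, treated with compounds for 20-24 h at 37 °C. Initial iodide influx rate after NaI-substituted HEPES buffer (pH 7.4) addition, taken from the initial slope of YFP fluorescence quench by nonlinear regression. EC50 reported in bins.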

[2] = target: T1, H723R-pendrin; assay: PTI assay (Cl−/HCO3− exchange activity); type: cell-based; conditions: PANC-1 cells, BCECF pHi
Experimental: Measurements of intracellular pH (pHi) in PANC-1 cells were performed with the pH-sensitive fluorescent probe 2′,7′-bis-(2-carboxyethyl)-5-(and-6)-carboxyfluorescein (BCECF) according to previously reported protocols. Briefly, cells were incubated with 2 μM BCECF acetoxy-methylester for 5 min and then perfused with a HCO3^−-buffered solution [containing 120 mM NaCl, 5 mM KCl, 1 mM MgCl2, 1 mM CaCl2, 10 mM d-glucose, 5 mM Hepes, and 25 mM NaHCO3 (pH 7.4)].
BCECF fluorescence was recorded at excitation wavelengths of 490 and 440 nm at a resolution of 2/s on a recording setup. The Cl^−/HCO3^− exchange activities were estimated from the initial rate of pHi increase as a result of Cl^− removal from the HCO3^−-containing buffer (25 mM HCO3^− with 5% CO2).
The pHi calibration was performed with standard pH solutions containing 150 mM KCl and 5 μM nigericin. The intrinsic buffer capacity (βi) was calculated by measuring ΔpHi in response to 5 to 40 mM NH4Cl pulses in Na^+-free solutions. Because the βi values were not substantially affected by transfection with the plasmids encoding for WT-pendrin or H723R-pendrin, the Cl^−/HCO3^− exchange activities were expressed as ΔpH unit/min without compensating for the buffer capacity.
It is indicated as exchange % with the following key: A=Exchange % greater than 50%; B=Exchange % less than 50%.

Row | Compound | EC50 [1] [µM] | Cl−/HCO3− exchange, % of WT-hPDS ([2]; 3 uM) | Cl−/HCO3− exchange, % of WT-hPDS ([2]; 10 uM)
1 | COc1cc(-c2nccc(C3=C(N)N(CC4CCCC4)CC3=O)n2)ccc1O [Compound 105] | < 5 | A (A=Exchange % greater than 50%) | A (A=Exchange % greater than 50%)
2 | NC1=C(c2cncc(-c3ccc(O)c(O)c3)n2)C(=O)CN1c1ccccc1Cl [Compound 9] | < 5 | A (A=Exchange % greater than 50%) | A (A=Exchange % greater than 50%)
3 | NC1=C(c2cncc(-c3ccc(O)c(O)c3)n2)C(=O)CN1CC1CCCC1 [Compound 18] | < 5 | A (A=Exchange % greater than 50%) | A (A=Exchange % greater than 50%)
